Measurements published in ChEMBL document CHEMBL1201862, “PubChem BioAssay data set” (2004).
Active and inactive are the calls of the source.

Experiments:
[1] = target: T1, Type-1 angiotensin II receptor (Homo sapiens, UniProt P30556); experiment: AT1 receptor antagonists, dose response, selectivity assay for APJ receptor antagonist project, cell-based, uHTS hits (AID 463214); type: functional;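 further: antagonist potency against angiotensin II stimulated AT1 response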
T1 sequence (P30556 whole entry): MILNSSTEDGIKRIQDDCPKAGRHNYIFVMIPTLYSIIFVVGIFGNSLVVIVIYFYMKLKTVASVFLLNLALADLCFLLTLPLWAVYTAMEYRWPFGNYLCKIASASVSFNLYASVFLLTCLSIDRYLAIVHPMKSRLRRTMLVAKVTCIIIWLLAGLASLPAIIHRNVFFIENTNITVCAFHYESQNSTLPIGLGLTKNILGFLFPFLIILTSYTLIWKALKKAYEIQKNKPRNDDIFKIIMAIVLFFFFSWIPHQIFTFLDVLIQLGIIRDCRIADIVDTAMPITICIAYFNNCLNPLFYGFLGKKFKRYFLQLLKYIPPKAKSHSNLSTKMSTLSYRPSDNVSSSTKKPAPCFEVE

Beta-galactosidase = Beta-galactosidase (Escherichia coli, UniProt Q8VNN2); experiment: PubChem AID 485352; type: functional
Sequence of Beta-galactosidase (Q8VNN2 whole entry): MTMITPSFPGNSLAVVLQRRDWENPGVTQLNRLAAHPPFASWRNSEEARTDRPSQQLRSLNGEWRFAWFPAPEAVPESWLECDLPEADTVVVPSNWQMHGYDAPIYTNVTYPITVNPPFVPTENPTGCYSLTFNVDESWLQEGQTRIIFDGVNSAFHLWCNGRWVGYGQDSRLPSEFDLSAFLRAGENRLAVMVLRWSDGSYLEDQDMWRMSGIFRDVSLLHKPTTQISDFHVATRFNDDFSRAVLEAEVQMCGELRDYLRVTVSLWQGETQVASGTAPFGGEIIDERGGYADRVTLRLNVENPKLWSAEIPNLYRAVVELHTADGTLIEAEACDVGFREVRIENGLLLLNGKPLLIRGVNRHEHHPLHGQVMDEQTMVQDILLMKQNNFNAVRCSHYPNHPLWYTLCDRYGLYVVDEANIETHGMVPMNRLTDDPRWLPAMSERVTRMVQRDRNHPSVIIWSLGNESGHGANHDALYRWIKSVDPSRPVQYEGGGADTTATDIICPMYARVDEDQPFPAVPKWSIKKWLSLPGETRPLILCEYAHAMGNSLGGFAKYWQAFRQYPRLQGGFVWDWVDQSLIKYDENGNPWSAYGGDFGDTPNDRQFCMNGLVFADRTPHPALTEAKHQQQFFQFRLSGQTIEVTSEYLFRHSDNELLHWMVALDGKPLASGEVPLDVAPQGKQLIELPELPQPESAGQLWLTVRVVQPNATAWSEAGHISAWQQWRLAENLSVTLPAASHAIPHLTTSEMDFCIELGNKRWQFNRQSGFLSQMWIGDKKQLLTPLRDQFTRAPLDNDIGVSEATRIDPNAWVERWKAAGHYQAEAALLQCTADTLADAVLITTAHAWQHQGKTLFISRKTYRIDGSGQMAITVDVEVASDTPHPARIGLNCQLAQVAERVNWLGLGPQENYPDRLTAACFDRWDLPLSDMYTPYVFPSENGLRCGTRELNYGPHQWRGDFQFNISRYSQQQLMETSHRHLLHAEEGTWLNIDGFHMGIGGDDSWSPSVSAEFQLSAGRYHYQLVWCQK

[2] = target: Peroxisome proliferator-activated receptor gamma/Nuclear receptor coactivator 1 (Homo sapiens, UniProt P37231); experiment: TR-FRET dose response biochemical High Throughput Screening assay for agonists of the steroid receptor coactivator 1 (SRC-1) recruitment by the peroxisome proliferator-activated receptor gamma (PPAR gamma): non-selective agonists. [Related pubchem assays (depositor defined):AID1300, AID1808, AID504735, AID631]; type: protein assay
Sequence of Peroxisome proliferator-activated receptor gamma/Nuclear receptor coactivator 1 (P37231 whole entry): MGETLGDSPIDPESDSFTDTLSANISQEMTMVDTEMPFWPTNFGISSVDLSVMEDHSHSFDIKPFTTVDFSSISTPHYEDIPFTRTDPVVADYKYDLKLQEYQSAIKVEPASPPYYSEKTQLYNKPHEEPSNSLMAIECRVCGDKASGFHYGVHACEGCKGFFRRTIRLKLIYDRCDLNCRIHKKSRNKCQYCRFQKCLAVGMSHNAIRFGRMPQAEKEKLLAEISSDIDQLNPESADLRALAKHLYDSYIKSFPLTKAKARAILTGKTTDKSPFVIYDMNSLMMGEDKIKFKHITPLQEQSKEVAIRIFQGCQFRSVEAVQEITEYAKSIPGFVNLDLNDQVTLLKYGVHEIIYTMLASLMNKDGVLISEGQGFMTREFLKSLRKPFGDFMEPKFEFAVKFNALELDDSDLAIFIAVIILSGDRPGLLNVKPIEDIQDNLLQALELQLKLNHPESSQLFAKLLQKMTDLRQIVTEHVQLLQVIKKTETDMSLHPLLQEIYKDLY
Sequence of Peroxisome proliferator-activated receptor gamma/Nuclear receptor coactivator 1 (Q15788 whole entry, further chain): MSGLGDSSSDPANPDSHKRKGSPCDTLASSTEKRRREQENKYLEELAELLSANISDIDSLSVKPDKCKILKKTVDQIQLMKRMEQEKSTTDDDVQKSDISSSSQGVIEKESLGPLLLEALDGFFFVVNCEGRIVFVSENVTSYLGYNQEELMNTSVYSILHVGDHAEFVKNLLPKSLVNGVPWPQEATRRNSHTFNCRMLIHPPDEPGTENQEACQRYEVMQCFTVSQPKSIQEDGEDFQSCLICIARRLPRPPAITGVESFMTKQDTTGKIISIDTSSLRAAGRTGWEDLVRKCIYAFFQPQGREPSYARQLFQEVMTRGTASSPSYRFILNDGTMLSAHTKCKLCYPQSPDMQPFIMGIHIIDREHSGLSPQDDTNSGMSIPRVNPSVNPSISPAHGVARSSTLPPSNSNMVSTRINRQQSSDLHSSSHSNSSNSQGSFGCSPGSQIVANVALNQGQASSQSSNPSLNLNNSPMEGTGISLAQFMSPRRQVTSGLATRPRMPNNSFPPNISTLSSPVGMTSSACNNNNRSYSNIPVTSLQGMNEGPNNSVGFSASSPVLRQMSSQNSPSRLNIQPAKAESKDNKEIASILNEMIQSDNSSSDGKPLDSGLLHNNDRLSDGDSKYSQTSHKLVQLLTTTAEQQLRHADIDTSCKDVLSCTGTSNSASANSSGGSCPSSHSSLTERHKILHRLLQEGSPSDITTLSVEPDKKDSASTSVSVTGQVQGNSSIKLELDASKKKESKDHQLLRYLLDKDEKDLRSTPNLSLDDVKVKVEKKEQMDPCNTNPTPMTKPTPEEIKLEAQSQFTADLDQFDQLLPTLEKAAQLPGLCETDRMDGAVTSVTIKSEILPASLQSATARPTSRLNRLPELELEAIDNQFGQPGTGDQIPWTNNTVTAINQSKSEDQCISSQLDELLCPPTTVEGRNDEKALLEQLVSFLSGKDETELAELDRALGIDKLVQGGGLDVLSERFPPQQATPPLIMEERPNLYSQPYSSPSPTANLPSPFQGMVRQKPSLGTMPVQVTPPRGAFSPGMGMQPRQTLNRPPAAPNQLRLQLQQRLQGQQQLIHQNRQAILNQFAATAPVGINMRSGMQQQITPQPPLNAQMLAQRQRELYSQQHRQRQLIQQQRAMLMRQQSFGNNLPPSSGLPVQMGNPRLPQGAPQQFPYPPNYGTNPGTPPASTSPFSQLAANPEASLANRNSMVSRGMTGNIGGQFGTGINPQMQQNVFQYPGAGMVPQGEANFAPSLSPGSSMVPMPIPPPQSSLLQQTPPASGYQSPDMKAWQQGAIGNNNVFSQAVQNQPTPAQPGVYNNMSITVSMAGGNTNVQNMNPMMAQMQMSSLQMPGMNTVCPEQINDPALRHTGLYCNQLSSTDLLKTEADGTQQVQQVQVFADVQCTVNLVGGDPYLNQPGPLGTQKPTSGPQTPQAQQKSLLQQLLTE

[3] = target: T2, Short transient receptor potential channel 4 (Mus musculus, UniProt Q9QUQ5); experiment: mouse TRPC4 channel inhibitors, dose response, cell-based, HEK293 TRPC4/mu-opioid, Fluo-4 calcium (AID 434942); type: functional;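 further: potency of inhibitors blocking the TRPC4 calcium response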
T2 sequence (Q9QUQ5 whole entry): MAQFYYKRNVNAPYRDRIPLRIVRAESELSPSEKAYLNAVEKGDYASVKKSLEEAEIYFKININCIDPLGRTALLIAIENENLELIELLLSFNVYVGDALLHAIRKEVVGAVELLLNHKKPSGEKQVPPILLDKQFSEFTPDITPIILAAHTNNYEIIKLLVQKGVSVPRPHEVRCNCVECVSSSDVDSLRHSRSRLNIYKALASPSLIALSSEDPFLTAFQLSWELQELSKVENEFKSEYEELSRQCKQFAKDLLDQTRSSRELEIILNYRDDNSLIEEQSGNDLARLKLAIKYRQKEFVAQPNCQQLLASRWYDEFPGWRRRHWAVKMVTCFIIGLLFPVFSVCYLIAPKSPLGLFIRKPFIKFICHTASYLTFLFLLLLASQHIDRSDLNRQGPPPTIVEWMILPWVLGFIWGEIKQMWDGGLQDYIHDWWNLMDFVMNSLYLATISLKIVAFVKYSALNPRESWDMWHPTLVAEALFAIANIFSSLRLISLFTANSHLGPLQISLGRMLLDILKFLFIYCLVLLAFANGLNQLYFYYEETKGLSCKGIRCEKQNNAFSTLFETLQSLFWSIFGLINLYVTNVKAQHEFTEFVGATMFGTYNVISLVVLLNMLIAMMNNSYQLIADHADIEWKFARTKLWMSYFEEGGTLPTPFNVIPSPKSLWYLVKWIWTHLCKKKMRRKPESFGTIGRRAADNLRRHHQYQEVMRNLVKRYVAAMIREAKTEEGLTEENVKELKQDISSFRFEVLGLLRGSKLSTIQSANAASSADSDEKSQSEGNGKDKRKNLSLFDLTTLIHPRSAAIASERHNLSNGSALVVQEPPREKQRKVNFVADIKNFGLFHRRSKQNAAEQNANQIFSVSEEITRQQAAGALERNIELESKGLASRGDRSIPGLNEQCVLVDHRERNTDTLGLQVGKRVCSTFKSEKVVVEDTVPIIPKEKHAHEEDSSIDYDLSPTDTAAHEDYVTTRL

[4] = target: Peroxisome proliferator-activated receptor gamma/Nuclear receptor coactivator 2 (Homo sapiens, UniProt P37231); experiment: (§1) TR-FRET dose response biochemical High Throughput Screening assay for agonists of the steroid receptor coactivator 2 (SRC-2) recruitment by the peroxisome proliferator-activated receptor gamma (PPAR gamma): non-selective agonists. [Related pubchem assays: 1297, 1032 ]; type: functional
Sequence of Peroxisome proliferator-activated receptor gamma/Nuclear receptor coactivator 2 (P37231 whole entry): as the sequence (P37231 whole entry) above
Sequence of Peroxisome proliferator-activated receptor gamma/Nuclear receptor coactivator 2 (Q15596 whole entry, further chain): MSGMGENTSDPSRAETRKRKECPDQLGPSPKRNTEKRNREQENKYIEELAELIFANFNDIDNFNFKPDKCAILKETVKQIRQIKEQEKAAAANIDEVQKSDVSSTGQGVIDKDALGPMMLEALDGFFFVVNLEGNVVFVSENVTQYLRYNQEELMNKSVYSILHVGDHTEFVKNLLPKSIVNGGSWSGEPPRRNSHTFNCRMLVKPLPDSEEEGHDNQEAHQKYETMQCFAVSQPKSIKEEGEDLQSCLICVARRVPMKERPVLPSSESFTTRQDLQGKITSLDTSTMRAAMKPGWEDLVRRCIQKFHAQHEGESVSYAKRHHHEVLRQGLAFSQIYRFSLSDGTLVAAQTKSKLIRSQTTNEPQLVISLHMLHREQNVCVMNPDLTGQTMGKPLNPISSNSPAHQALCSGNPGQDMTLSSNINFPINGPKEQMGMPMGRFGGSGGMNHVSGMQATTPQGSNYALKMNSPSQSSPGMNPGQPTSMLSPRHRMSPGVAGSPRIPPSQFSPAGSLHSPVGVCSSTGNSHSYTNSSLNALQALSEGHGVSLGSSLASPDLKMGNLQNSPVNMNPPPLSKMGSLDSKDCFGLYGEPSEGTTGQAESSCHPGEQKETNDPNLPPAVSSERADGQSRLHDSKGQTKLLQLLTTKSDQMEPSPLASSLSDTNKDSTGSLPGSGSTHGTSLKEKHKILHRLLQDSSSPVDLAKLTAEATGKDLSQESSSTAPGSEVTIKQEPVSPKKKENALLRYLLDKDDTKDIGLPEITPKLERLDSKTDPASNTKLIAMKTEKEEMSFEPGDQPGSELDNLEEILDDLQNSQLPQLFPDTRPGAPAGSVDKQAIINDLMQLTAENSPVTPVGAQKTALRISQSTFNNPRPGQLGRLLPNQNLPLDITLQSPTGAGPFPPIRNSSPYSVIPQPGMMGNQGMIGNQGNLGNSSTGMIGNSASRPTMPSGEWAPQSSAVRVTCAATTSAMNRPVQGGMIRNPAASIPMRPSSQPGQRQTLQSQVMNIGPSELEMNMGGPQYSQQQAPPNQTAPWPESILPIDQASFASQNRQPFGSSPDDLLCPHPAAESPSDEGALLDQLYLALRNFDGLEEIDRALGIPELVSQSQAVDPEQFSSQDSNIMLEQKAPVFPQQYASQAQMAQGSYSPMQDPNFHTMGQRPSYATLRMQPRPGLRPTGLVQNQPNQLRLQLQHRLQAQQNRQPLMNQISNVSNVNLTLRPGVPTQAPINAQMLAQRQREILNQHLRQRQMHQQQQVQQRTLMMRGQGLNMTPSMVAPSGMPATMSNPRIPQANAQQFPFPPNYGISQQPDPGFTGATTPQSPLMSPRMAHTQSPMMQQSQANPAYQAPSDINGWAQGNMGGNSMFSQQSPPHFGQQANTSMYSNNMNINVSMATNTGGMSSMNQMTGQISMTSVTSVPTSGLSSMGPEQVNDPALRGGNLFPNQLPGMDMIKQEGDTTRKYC

[5] = target: Peroxisome proliferator-activated receptor gamma/Nuclear receptor coactivator 3 (Homo sapiens, UniProt P37231); experiment: as §1, with “3 (SRC-3)” for “2 (SRC-2)”, “1301 (Confirmation screen.), 1048 (Primary screen.)]” for “1297, 1032 ]”; type: functional
[6] = target: DNA (cytosine-5)-methyltransferase 1 (Homo sapiens, UniProt P26358); experiment: DNMT1 methyltransferase inhibitors, confirmation, biochemical, fluorescent molecular beacon (AID 602386); type: functional
[7] = target: T3, Ubiquitin-conjugating enzyme E2 N (Homo sapiens, UniProt P61088); type: functional;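 further: Dose-response confirmation in a TR-FRET assay detecting UBC13-driven polyubiquitin chain formation, inhibition measured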
T3 sequence (P61088 whole entry): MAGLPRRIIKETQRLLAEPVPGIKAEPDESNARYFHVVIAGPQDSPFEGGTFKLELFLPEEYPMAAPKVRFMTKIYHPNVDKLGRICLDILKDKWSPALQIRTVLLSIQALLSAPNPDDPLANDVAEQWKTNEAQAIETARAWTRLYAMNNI

Cytochrome P450 2C19 = Cytochrome P450 2C19 (Homo sapiens, UniProt P33261); experiment: Cytochrome panel assay with activity outcomes. Panel member name: p450-cyp2c19 Compounds with AC50 equal or less than 10 uM are considered active; type: functional
[8] = cytotoxicity toward DRD oncogenic fibroblasts, dose response, cell-based, non-viral oncogenic, luminescence (AID 1934); type: functional; settings: Homo sapiens
BJ [9] = experiment: cytotoxicity toward BJ-TERT-LT-ST fibroblasts, dose response, cell-based, RAS-independent, luminescence (AID 1935); type: functional; settings: Homo sapiens;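 further: BJ fibroblasts immortalized with TERT plus LT and ST oncogenes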
BJ [10] = experiment: cytotoxicity toward BJ-TERT fibroblasts, dose response, cell-based, RAS-independent, luminescence (AID 1933); type: functional; settings: Homo sapiens
BJ [11] = experiment: cells; type: functional, cell-based; settings: Homo sapiens
[12] = target: T4, DNA repair and recombination protein RAD54-like (Homo sapiens, UniProt Q92698); experiment: inhibitors of human RAD54 branch migration, confirmation, biochemical, fluorescence, cherry-picked samples, dose series (AID 651657); type: functional
T4 sequence (Q92698 whole entry): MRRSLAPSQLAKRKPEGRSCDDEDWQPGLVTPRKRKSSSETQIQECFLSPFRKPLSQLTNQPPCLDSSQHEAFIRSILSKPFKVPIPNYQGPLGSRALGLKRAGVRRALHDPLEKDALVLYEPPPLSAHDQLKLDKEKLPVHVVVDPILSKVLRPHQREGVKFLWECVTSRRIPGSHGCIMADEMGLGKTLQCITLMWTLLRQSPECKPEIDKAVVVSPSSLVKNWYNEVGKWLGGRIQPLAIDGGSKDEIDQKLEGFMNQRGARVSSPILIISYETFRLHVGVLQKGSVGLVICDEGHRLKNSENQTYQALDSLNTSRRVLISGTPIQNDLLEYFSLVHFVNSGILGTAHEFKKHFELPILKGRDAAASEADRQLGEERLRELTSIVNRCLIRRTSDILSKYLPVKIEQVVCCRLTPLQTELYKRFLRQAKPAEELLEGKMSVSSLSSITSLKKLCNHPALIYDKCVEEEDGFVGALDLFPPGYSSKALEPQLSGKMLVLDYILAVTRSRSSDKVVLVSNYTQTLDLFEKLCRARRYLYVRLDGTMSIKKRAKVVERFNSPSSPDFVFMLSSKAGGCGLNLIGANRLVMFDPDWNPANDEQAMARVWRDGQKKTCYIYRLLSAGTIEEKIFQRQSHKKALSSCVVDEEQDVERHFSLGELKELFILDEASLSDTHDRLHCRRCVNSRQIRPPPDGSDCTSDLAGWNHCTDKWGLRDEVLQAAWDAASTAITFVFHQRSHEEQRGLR

Streptococcus = experiment: Group A Streptococcus viability loss, dose response, counter-screen for streptokinase expression inhibitor project, luminescence, BacTiterGlo (AID 1915); type: functional, organism-based;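 further: potency for reduction of bacterial viability or growth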
[13] = target: T5, Microphthalmia-associated transcription factor (Homo sapiens, UniProt O75030); experiment: TRPM1 promoter luciferase signal decrease, dose response, MITF inhibitor project, cell-based, SK-MEL-5, cherry-picked, set 3 (AID 493073); type: functional
T5 sequence (O75030 whole entry): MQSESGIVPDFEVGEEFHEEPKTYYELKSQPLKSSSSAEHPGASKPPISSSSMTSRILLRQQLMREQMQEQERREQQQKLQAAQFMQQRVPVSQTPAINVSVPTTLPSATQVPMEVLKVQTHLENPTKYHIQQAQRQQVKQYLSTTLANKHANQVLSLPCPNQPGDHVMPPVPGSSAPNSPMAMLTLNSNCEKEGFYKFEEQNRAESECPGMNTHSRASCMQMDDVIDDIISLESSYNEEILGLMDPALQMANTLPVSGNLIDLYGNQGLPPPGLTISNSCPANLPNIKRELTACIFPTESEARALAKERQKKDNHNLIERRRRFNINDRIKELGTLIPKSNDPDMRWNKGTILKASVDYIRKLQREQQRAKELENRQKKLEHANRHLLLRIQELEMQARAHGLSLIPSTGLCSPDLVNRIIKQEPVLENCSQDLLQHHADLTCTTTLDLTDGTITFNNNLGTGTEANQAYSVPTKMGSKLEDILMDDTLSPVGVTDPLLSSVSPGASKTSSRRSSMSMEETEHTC

INS1 = experiment: beta cell apoptosis inhibitors, cytokine rescue, dose response, luminescence, retest (AID 449756); type: functional, cell-based; settings: Rattus norvegicus;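 further: cell death triggered by IL-1 beta plus TNF-alpha plus IFN-gamma mixture; protective hits raise ATP signal compared with cytokine alone wells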
[14] = system: Streptococcus sp. 'group A'; experiment: growth inhibition of control SK(-) GAS strain, dose response, counter-screen for streptokinase expression inhibitor project, luminescence, kanamycin, BacTiterGlo, confirmation (AID 1900); type: functional, organism-based
[15] = cytotoxicity toward NIH3T3 fibroblasts, dose response, counter-screen, cell-based, ATP luminescence, mouse fibroblasts (AID 2010); type: functional;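 further: cells exposed to compound for about 90 hours before reading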
[16] = inhibitors of intracellular T. cruzi replication, confirmation, NIH3T3 host cells, beta-gal luminescence (AID 2044); type: functional, cell-based;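 further: intracellular parasites grown in NIH/3T3 mouse fibroblasts as host cells; luminescent beta-galactosidase reporter signal from transgenic T. cruzi replicating inside host cells; inhibitors lower the luminescence signal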

SMILES | IC50 [1] | EC50 (Beta-galactosidase) | EC50 [2] | EC50 [4] | EC50 [5] | further results
Cc1ccc(NCC(=O)c2ccccc2)cc1Cl | 5.7 µM (active) | > 40 µM (inactive) |  |  |  | 
OCC1(CCc2ccccc2)CCN(Cc2ccc3nsnc3c2)CC1 |  |  | 42.2 µM (inactive) | 29.1 µM (not active) | > 79.4 µM (not active) | EC50 [3]: 8.41 µM (active)
O=C(c1ccc(=O)oc1)N1CCOCC1 |  |  |  |  |  | IC50 [6]: 3.67 µM (active)
Cn1c(=O)cc(SCC(=O)N2CCCC2)c2ccccc21 |  |  | > 79.4 µM (inactive) | > 79.4 µM (not active) | > 79.4 µM (not active) | 
CCc1cc2c(=O)n(-c3ccccc3)c(=S)[nH]c2s1 |  |  | > 79.4 µM (inactive) | > 79.4 µM (not active) | > 79.4 µM (not active) | IC50 [7]: > 20 µM (inactive); AC50 (Cytochrome P450 2C19): inconclusive
Cc1ccc2c(c1)C(=O)C(=O)N2c1ccc(Cl)cc1 | 33.2 µM (not active) | > 40 µM (inactive) |  |  |  | 
COc1ccc(CC(=O)Nc2ccc(-c3nc4cc(C)ccc4o3)c(O)c2)cc1OC |  |  | 27.8 µM (inactive) | 24 µM (not active) | > 79.4 µM (not active) | 
Cc1cc[n+](CC(=O)c2cccc([N+](=O)[O-])c2)c2ccccc12 |  |  |  |  |  | EC50 [8]: > 150 µM (not active); EC50 (BJ [9]): > 150 µM (inconclusive); IC50 [6]: > 99 µM (inactive); EC50 (BJ [10]): 25.1 µM (active); EC50 (BJ [11]): > 150 µM (not active)
CN1CCC(N(C)c2nc(-c3ccccc3)nc3ccccc23)CC1 |  |  |  |  |  | AC50 [12]: 18.1 µM (active)
CCCN1CCN(CCCNC(=O)c2cc3c(=O)n(C)c4ccccc4c3n2C)CC1 |  |  |  |  |  | AC50 [12]: 34.7 µM (active)
C/C(=N\NC(=O)COc1ccccc1-c1ccccc1)c1ccccn1 | 3.73 µM (active) | > 40 µM (inactive) |  |  |  | EC50 (Streptococcus): 4.08 µM (active); AC50 [13]: 4.58 µM (active); AC50 (INS1): 1.32 µM (active); EC50 [14]: 1.05 µM (active)
S=C(N/N=C/c1ccc(Cl)cc1)N1CCOCC1 | 7.99 µM (active) | > 40 µM (inactive) |  |  |  | 
COc1ccc2nc(C)cc(Nc3ccc(N4CCOCC4)cc3)c2c1 |  |  |  |  |  | EC50 [15]: 27 µM (active); AC50 [12]: 17.4 µM (active); EC50 [16]: 1.79 µM (active)
